From patent US20250263459A1, “STABILIZED PACAP PEPTIDE” (SENJU PHARMACEUTICAL CO., LTD., priority 2019, published 2025) come the findings set out here.

The conditions of data set [1]: 100 μM peptide, Tris buffer pH 7.0, 60° C.
Description: The solution was filtered with a Chromatdisk (product of Merck Millipore, Millex-GV, 0.22 μm). The filtrate was diluted to 100 μM with Tris buffer (pH 7.0) and dispensed into a tube (Protein LoBind Tube by Eppendorf Co.). The prepared peptide solutions were incubated for 1 week or 2 weeks in a 60° C. thermostatic bath to obtain stored samples. A simultaneously prepared sample among the peptide solutions that was not stored was used as a standard sample (initial sample). The standard sample and the stored samples were stored at −30° C. until sample analysis.
• Column: XSelect CSH C18 by Waters Co., 5 μm, 4.6×250 mm • Guard column: XSelect CSH C18 by Waters Co., 5 μm, 4.6×20 mm Guard Cartridge • Detection wavelength: 220 nm • Mobile phase A: 0.1% formic acid aqueous solution • Mobile phase B: 0.1% acetonitrile formate solution • Measuring time: 20 minutes • Measuring sample injection rate: 50 μL • Flow rate: 1.0 mL/min • Column temperature: 40° C. • Sample cooler: 25° C. • Mobile phase delivery: The mixing ratio of mobile phase A and mobile phase B was varied as shown in Table 14 for linear concentration gradient control.
A short description of data set [2]: Stability test 1: survival rate of peptide in phosphate buffer (pH 7.0) after storage, HPLC. Type of data set: physicochemical. To be noted: 100 μM peptide, phosphate buffer pH 7.0, 40° C., 4 weeks (Table 8). As for the experimental part:
The 1.0 mM peptide solutions were then diluted with phosphate buffer to 100 μM. […] The prepared peptide solutions were incubated for one month or 2 months in a 40° C. thermostatic bath to obtain stored samples.
Using the total weight of the aqueous peptide solution and storage vessel as the specimen weight, measurements were recorded as the specimen weights before storage and the specimen weights after storage under different storage conditions. The empty weight of the storage vessel was also measured, and the moisture permeability was determined by the following formula.
After stirring the standard sample and the stored samples with a vortex mixer, each peptide solution was transferred to an HPLC vial (Deactivated Qsert vial by Waters Co.). Reverse-phase HPLC (HPLC system: Prominence by Shimadzu Corp.) was conducted under the conditions shown in Table 3 below for analysis of the peptide solutions, and chromatograms were obtained.
The peak area value for the peptide in the chromatogram was calculated, and the survival rate (survival rate before correction for water) was calculated using formula (2). The survival rate after correction for water was also calculated from the survival rate before correction for water using formula (3) to take into account the permeability of the container.
Peptide solutions prepared by the same method as [Measuring sample preparation 1] for the peptides synthesized in Example 2 (peptides 13 to 16) were incubated for 2 weeks and 8 weeks in a thermostatic bath at 40° C. to obtain stored samples.
Peptide solutions prepared by the same method as [Measuring sample preparation 1] for the peptides synthesized in Example 2 (peptides 17 to 21) were incubated for 4 weeks in a thermostatic bath at 40° C. to obtain stored samples.
A peptide solution prepared by the same method as [Measuring sample preparation 1] for peptide 22 synthesized in Example 2 was incubated for 1 week and 4 weeks in a thermostatic bath at 40° C. to obtain stored samples.

Non-standard residues stand in square brackets, D forms with d. Residues, ends and D or L forms follow the SMILES beside them. *: point of attachment. Ala(1H-tetrazol-5-yl) = N[C@@H](Cc1nnn[nH]1)C(=O)O; Isovaleryl = CC(C)CC(=O)*; Nle = CCCC[C@H](N)C(=O)O

On to “HSTzGIFTTzSYSRYRKQLAVKKYLAAVL [Reference Example 6] (HSXGIFTXSYSRYRKQLAVKKYLAAVL; N-acetyl; C-terminal amide; Tz residues; modified PACAP peptide; MOD_RES (1)..(1) …ON; MUTAGEN (3)..(3) Xaa is amino acid wherein carboxy group of asparatic acid is substituted with tetrazole; MUTAGEN (8)..(8) Xaa is amino acid wherein carboxy group of asparatic acid is substituted with tetrazole)”, for which, in data set [1], the “survival rate after correction for water, 60° C. 1 week preservation” value (“survival rate … 60° C. 1 week preservation” below) was determined as 98.4% and the “survival rate after correction for water, 60° C. 2 weeks preservation” value (shortened to “survival rate … 60° C. 2 weeks preservation”) stood at 92.8%. Turning to “HSTzGIFTTzSYSRYRKQNIAVKKYLAAVL [Reference Example 5] (HSXGIFTXSYSRYRKQXAVKKYLAAVL; N-acetyl; C-terminal amide; Tz residues; modified PACAP peptide; MOD_RES (1)..(1) …ON; MUTAGEN (3)..(3) Xaa is amino acid wherein carboxy group of asparatic acid is substituted with tetrazole; MUTAGEN (8)..(8) Xaa is amino acid wherein carboxy group of asparatic acid is substituted with tetrazole; MUTAGEN (17)..(17) Xaa is Nle)”, in data set [1], the “survival rate … 60° C. 1 week preservation” value was 98.1% and the “survival rate … 60° C. 2 weeks preservation” value came out at 92.9%. Regarding `CCCC[C@H](NC(=O)[C@H](CCC(N)=O)NC(=O)[C@H](CCCCN)NC(=O)[C@H](CCCNC(=N)N)NC(=O)[C@H](Cc1ccc(O)cc1)NC(=O)[C@H](CCCNC(=N)N)NC(=O)[C@H](CO)NC(=O)[C@H](Cc1ccc(O)cc1)NC(=O)[C@H](CO)NC(=O)[C@H](Cc1nnn[nH]1)NC(=O)[C@@H](NC(=O)[C@H](Cc1ccccc1)NC(=O)[C@@H](NC(=O)CNC(=O)[C@H](Cc1nnn[nH]1)NC(=O)[C@H](CO)NC(=O)[C@H](Cc1c[nH]cn1)NC(=O)CC(C)C)[C@@H](C)CC)[C@@H](C)O)C(=O)N[C@@H](C)C(=O)N[C@H](C(=O)N[C@@H](CCCCN)C(=O)N[C@@H](CCCCN)C(=O)N[C@@H](Cc1ccc(O)cc1)C(=O)N[C@@H](CC(C)C)C(=O)N[C@@H](C)C(=O)N[C@@H](C)C(=O)N[C@H](C(=O)N[C@@H](CC(C)C)C(N)=O)C(C)C)C(C)C` [Peptide 21] (Isovaleryl-HS[Ala(1H-tetrazol-5-yl)]GIFT[Ala(1H-tetrazol-5-yl)]SYSRYRKQ[Nle]AVKKYLAAVL-NH2), the “survival rate after correction for water, 40° C. 4 week” value in data set [2] is on record as 69.0%. In the case of “HSTzGIFTTzSYSRYRKQNIAVKKYLAAVL [Reference Example 3]”, in data set [1], the “survival rate … 60° C. 1 week preservation” value amounted to 91.3% and the “survival rate … 60° C. 2 weeks preservation” value was 82.4%.

For the compound “HSTzGIFTTzSYSRYRKQLAVKKYLAAVL [Reference Example 4]”, in data set [1], the “survival rate … 60° C. 1 week preservation” value was determined as 91.7% and the “survival rate … 60° C. 2 weeks preservation” value worked out at 84.8%.
